Reference: patent publication US9233949B2, “Treatment for oxidative stress and/or hypertension” (Georgetown University, priority 2009, dated 2016)

Legend:
[1] = test system: conscious salt-loaded spontaneously hypertensive rats; assay: MAP in conscious salt-loaded SHR, daily oral gavage of drugs dissolved in DMSO; format: in vivo, rat; conditions: for Δ MAP Day 1 / Δ MAP Day 2 / Δ MAP Day 3: mean vehicle-adjusted fall, 2 mL of 10 mmol/L daily oral gavage, DMSO, n=3; for blood pressure effect, summary of Table 1: over three days, DMSO vehicle
Procedure: In another experiment, conscious salt-loaded spontaneously hypertensive rats received daily oral gavage with 2 mL of 10 mmol/L tempol, telmisartan, tempol/telmisartan ester-linked adduct (YK), tempamine/telmisartan amide-linked adduct (PLJ), and tempol+telmisartan. The drugs were dissolved in DMSO.

[2] = test system: O2.^− generated by xanthine plus xanthine oxidase; assay: Cell-free SOD mimetic / antioxidant assay, lucigenin-enhanced chemiluminescence; format: biochemical; conditions: drugs 10^−4 M, cell-free buffer with xanthine plus xanthine oxidase
Procedure: Low dose (10 μmol L^−1) lucigenin-enhanced chemiluminescence was used as previously described, to detect O2.^−, antioxidants or SOD mimetic properties. Vehicle or drugs (10^−4 M) were first added to cell-free buffer with O2.^− stimulated with xanthine (25 μmol/L) plus xanthine oxidase (9 IU/mL) to study the intrinsic antioxidant properties of the drugs used (34). Subsequent studies were performed in PGVSMCs from spontaneously hypertensive rats grown in 6-well plates. Cells (10^6 cells per well) were stimulated for 4 hours with Ang II (10^−6 M) to generate O2.^− in the presence of vehicle or drugs (19, 34, 45).

[3] = test system: conscious spontaneously hypertensive rats; assay: Telemetric mean arterial pressure in conscious SHR on high salt diet after gavage; format: in vivo, rat; conditions: for reduction of MAP: 80 μmol·kg^−1 once-daily gavage, high salt diet, maximal 16-24 hours after each gavage; for reduction of BP compared with tempol: after the first and the fourth gavage
Procedure: Spontaneously hypertensive rats (SHR) were anesthetized with 3% isoflurane for placement of telemetric blood pressure recorders as described (46). After 10 days, spontaneously hypertensive rats were anesthetized with halothane between 9 and 10 am and given a 2 mL gavage. Each rat was first given a training gavage with 2 mL of vehicle (0.9% w/v sodium chloride) and, two days later a second vehicle gavage as the control group. We detected no differences in the pattern of 4-hourly BP recording after the first or second vehicle gavage, compared to a day in which no gavage was given (data not shown). Blood pressure was recorded continuously. Data are presented as mean values over 4-hr periods for mean arterial pressure (MAP) and heart rate (HR). Two days after the second vehicle gavage, rats were again anesthetized with halothane and given a 2 mL gavage with one of the test drugs (10 mmol/L or 80 μmol·kg^−1). In random order rats received tempol, telmisartan, tempol plus telmisartan, or tempol/telmisartan ester-linked adduct (YK). Each rat received only one drug or drug combination. Two additional groups were tested similarly with candesartan and tempol+candesartan.
Preliminary studies were undertaken of antihypertensive responsiveness to gavage with 80 and 800 μmol kg^−1 of tempol. […] Therefore, the study was conducted in rats equilibrated to a high salt intake (Teklad Inc, 2826 Latham Drive, Madison, Wis. 53713) and given four daily doses of […] of drugs or vehicle.

[4] = test system: Ang II-stimulated spontaneously hypertensive rat preglomerular vascular smooth muscle cells; assay: O2.^− generation in Ang II-stimulated PGVSMCs, lucigenin-enhanced chemiluminescence; format: cell-based
Procedure: Preglomerular vascular smooth muscle cells (PGVSMCs) were isolated from 13- to 15-week-old male spontaneously hypertensive rats purchased from Taconic Farms (Germantown, N.Y.) as previously described (3, 9). Briefly, 1% Fe2O3 in DMEM was injected into isolated kidneys through the renal artery. The iron-loaded kidney was removed from the rat, the cortex was minced and washed in a 1% collagenase IV solution. Blood vessels were collected on a magnet and incubated with DMEM/F12 supplemented with 10% FCS and 20 U of penicillin-streptomycin. Experiments were conducted between passage 5 and 15. PGVSMCs were cultured in DMEM/F12 supplemented with 10% FBS, 100 U/mL penicillin, 100 μg/mL streptomycin and 200 μg/mL glutamine at 37° C. in 5% CO2-95% air at 98% humidity. […]
To determine the effects of drugs, cells were pretreated with graded concentrations (10^−12 to 10^−4 M) of tempol, telmisartan, tempol plus telmisartan, and tempol/telmisartan ester-linked adduct or vehicle (PBS) for 2 hours. […] Chemiluminescence was quantitated in a reader (AutoLumatPlus LB 953; EG&G, Berthold, Germany). The dynamic tracing was recorded for 180 seconds after the addition of lucigenin (10 μmol·L^−1) and NADPH (100 μmol·L^−1). […] The protein concentrations were measured with Bio-Rad kit (Hercules, Calif.). […]

[5] = molecular target: T1, AT2-R (Bos taurus, UniProt G5E6F7); assay: Angiotensin II, Type 2 receptor radioligand binding displacement; design: species or system bovine; conditions: 10^−8 M drug concentration, n=2 (FIG. 3B)
T1 construct: from tissue; host or cells: bovine cerebellum membranes
T1 sequence (G5E6F7 1-362): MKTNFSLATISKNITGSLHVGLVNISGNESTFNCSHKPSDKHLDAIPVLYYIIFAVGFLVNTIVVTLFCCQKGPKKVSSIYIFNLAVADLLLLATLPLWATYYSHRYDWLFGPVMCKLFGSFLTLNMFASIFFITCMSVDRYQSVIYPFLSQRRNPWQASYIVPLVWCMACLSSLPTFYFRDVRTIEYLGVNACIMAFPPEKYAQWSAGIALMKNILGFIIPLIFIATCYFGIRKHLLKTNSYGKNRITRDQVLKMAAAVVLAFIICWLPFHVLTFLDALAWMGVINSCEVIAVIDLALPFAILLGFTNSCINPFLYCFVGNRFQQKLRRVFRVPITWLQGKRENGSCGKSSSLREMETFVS
Procedure: Angiogensin II, Type 2 Assay.
The assay was performed with a membrane preparation from bovine cerebellum. 200 μL of receptor suspension was re-suspended as 400 units in 80 mL and 100 units in 20 mL. The ligand [^125I]Tyr-4-Angiotensin II ([M] 1E-^10, Kd (binding affinity) 4E-^10, Bmax 2.11 fmol/mg) was used as a control. Radioactivity was counted in DPM. The assay buffer was 50 mM TRIS-HCl, containing 100 mM NaCl, 1 mM MgCl2, 0.1 mM Bacitracin, 0.1% BSA, (pH 7.2 at 25° C.) in an assay volume of 250 μL. Radioligand: 25 μL of Sar1, Tyr4-[^125I].

SMILES | Δ MAP Day 1 [1] [mmHg] | Δ MAP Day 2 [1] [mmHg] | Δ MAP Day 3 [1] [mmHg] | blood pressure effect, summary of Table 1 [1] | inhibition of lucigenin-enhanced chemiluminescence counts [2] | reduction of MAP [3] | reduction of BP compared with tempol [3] | fall in MAP, high salt (6 g·100 g^−1) compared to normal salt (0.3 g·100 g^−1) diet ([3]; pilot study, 16-24 hours after tempol 80 μmol kg^−1) | fall in MAP after 4 daily doses compared to the first dose ([3]; pilot study, high salt intake) | inhibition of O2.^− generation, tempol versus telmisartan ([4]; at 10^−4 M) | reduction of BP compared with single drugs ([3]; 12-24 hours after the first gavage) | additive effect on BP with repeated dosing ([3]; 16-24 hours after the fourth gavage) | reduction of MAP compared with candesartan or candesartan plus tempol ([3]; over 24 hours) | reduction of blood pressure compared with candesartan or candesartan plus tempol ([3]; over four days) | AT2-R binding displacement [5] | inhibition of O2.^− generation ([4]; 10^−12 to 10^−4 M, 10^−6 M Ang II for 4 hours, comparison at 10^−11, 10^−10 and 10^−6 M)
CCCc1nc2c(C)cc(-c3nc4ccccc4n3C)cc2n1Cc1ccc(-c2ccccc2C(=O)NC2CC(C)(C)N([O])C(C)(C)C2)cc1 [PLJ] | −13 | −14 | −14 | reduce blood pressure of conscious SHR similar to telmisartan | – | – | – | – | – | – | – | – | – | – | – | –
CCCc1nc2c(C)cc(-c3nc4ccccc4n3C)cc2n1Cc1ccc(-c2ccccc2C(=O)O)cc1 [Telmisartan, telmisartan] | −14 | −20 | −16 | – | ineffective | reduced the MAP | significantly more effective in reducing the BP than tempol | – | – | – | – | – | – | – | – | –
CC1(C)CC(O)CC(C)(C)N1[O] [Tempol, tempol] | 0 | −4 | −2 | apparent absence of any consistent effect | – | reduced the MAP | – | twice as great | twice as great | significantly (p<0.05) more effective than telmisartan | – | – | – | – | – | –
CCCc1nc2c(C)cc(-c3nc4ccccc4n3C)cc2n1Cc1ccc(-c2ccccc2C(=O)OC2CC(C)(C)N([O])C(C)(C)C2)cc1 [YK] | −13 | −14 | −14 | reduce blood pressure of conscious SHR similar to telmisartan | – | reduced the MAP | – | – | – | – | more effective than either tempol or telmisartan | lost with repeated dosing | reduced MAP significantly more than candesartan or candesartan plus tempol | still reduced blood pressure more than candesartan or candesartan plus tempol | without effects on AT2-R binding | significantly more effective than tempol or telmisartan alone
CCOc1nc2cccc(C(=O)O)c2n1Cc1ccc(-c2ccccc2-c2nnn[nH]2)cc1 [candesartan] | – | – | – | – | – | reduced the MAP | significantly more effective in reducing the BP than tempol | – | – | – | – | – | – | – | – | –
